According to patent publication US20070259879A1, “Piperazine and piperidine biaryl derivatives” (priority 2006, published 2007):
pIC50: −log10 of the molar value.

Each compound was assayed on HIV-1 pseudotyped virus (assay: HIV-1 pseudotyped virus assay (luciferase reporter gene, single cycle of infection)). Conditions: Human immunodeficiency virus 1, CCR5, 72 h, read-out: Activity (antiviral activity, IC50).
Format: cell-based
Procedure, shortened: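 Single-cycle luciferase-reporter pseudovirus made by co-transfecting 293T cells with HIV-1 envelope plasmid plus env-defective, nef-replaced backbone; infects CD4/CCR5 or CXCR4 target cells. Compounds added before virus, serial dilutions in duplicate, two experiments; 3-day culture, lysis, luminescence. IC50 = 50% signal reduction interpolated from titration curve.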

SMILES | pIC50
C[C@@H]1CN(C(=O)c2ccccc2)CCN1C(=O)C(=O)c1ccc(-c2cc[nH]n2)c(Cl)c1N(C)C [Example 221] | > 5.30
C[C@@H]1CN(C(=O)c2ccccc2)CCN1C(=O)C(=O)c1cc(Cl)c(-c2cc[nH]n2)cc1N(C)C [Example 222] | < 5.30
C[C@@H]1CN(C(=O)c2ccccc2)CCN1C(=O)C(=O)c1ccc(-c2cc[nH]n2)cc1O [Example 223] | > 5.30
Cc1cc(-c2ccc(C(=O)C(=O)N3CCN(C(=O)c4ccccc4)C[C@H]3C)c(O)c2)on1 [Example 224] | < 5.30
C[C@@H]1CN(C(=O)c2ccccc2)CCN1C(=O)C(=O)c1ccc(Br)c(Cl)c1 [Example 225] | > 5.30
COc1cc(Br)ccc1C(=O)C(=O)N1CCN(C(=O)c2ccccc2)C[C@H]1C [Example 226] | > 5.30
CNc1cc(-c2cc[nH]n2)ccc1C(=O)C(=O)N1CCN(C(=O)c2ccccc2)C[C@H]1C [Example 227] | < 5.30
COc1cc(Br)c(Cl)cc1C(=O)C(=O)N1CCN(C(=O)c2ccccc2)CC1 [Example 228] | > 5.30
COc1cc(-c2onc(C)c2Cl)ccc1C(=O)C(=O)N1CCN(C(=O)c2ccccc2)C[C@H]1C [Example 229] | > 5.30
C[C@@H]1CN(C(=O)c2ccccc2)CCN1C(=O)C(=O)c1cc(Cl)c(-c2cc[nH]n2)c(Cl)c1N [Example 230] | < 5.30
C[C@@H]1CN(C(=O)c2ccccc2)CCN1C(=O)C(=O)c1ccc(-n2cncn2)c(Cl)c1 [Example 231] | < 5.30
C[C@@H]1CN(C(=O)c2ccccc2)CCN1C(=O)C(=O)c1ccc(-n2ccnn2)c(Cl)c1 [Example 232] | < 5.30
Cc1nnc(-c2ccc(C(=O)C(=O)N3CCN(C(=O)c4ccccc4)C[C@H]3C)cc2)s1 [Example 233] | > 5.30
C[C@@H]1CN(C(=O)c2ccccc2)CCN1C(=O)C(=O)c1ccc(-c2nc[nH]n2)cc1 [Example 234] | > 5.30
Cc1cc(-c2ccc(C(O)C(=O)N3CCN(C(=O)c4ccccc4)C[C@H]3C)cc2)on1 (stereo partly shown) [Example 235] | < 5.30
COc1cc(-n2ccnn2)c(Cl)cc1C(=O)C(=O)N1CCN(C(=O)c2ccccc2)CC1 [Example 236] | > 5.30
COc1cc(-c2cc[nH]n2)c(Cl)cc1C(=O)C(=O)N1C2CCC1CN(C(=O)c1ccccc1)C2 [Example 237] | < 5.30

SMILES | pIC50
COc1cc(OC)c(C(=O)C(=O)N2CCN(C(=O)c3ccccc3)C[C@H]2C)cn1 [Example 238] | < 5.30
COc1cc(-c2cnn(C)c2)ncc1C(=O)C(=O)N1CCN(C(=O)c2ccccc2)C[C@H]1C [Example 239] | > 5.30
CC1CN(C(=O)c2ccccc2)CCN1C(=O)C(=O)c1ccc(-n2cccn2)cc1 (stereo not shown) [Example 240] | > 5.30
C[C@@H]1CN(C(=O)c2ccccc2)CCN1C(=O)C(=O)c1c[nH]c(-c2ccc3[nH]ccc3c2)c1 [Example 241] | < 5.30
C[C@@H]1CN(C(=O)c2ccccc2)CCN1C(=O)C(=O)c1cnc(-c2ccccc2)c(Cl)c1O [Example 242] | < 5.30
C[C@@H]1CN(C(=O)c2ccccc2)CCN1C(=O)C(=O)c1cnc(-c2cccs2)cc1O [Example 243] | < 5.30
C[C@@H]1CN(C(=O)c2ccccc2)CCN1C(=O)C(=O)c1cnc(-c2ccccc2)cc1O [Example 244] | < 5.30
C[C@@H]1CN(C(=O)c2ccccc2)CCN1S(=O)(=O)c1ccc(C(=O)c2cccs2)cc1 [Example 245] | < 5.30
C[C@@H]1CN(C(=O)c2ccccc2)CCN1S(=O)(=O)c1ccc(C(=O)c2ccsc2)s1 [Example 246] | < 5.30
CC1CN(C(=O)c2ccccc2)CCN1S(=O)(=O)c1ccc(C(=O)c2ccco2)cc1 (stereo not shown) [Example 247] | < 5.30
C[C@@H]1CN(C(=O)c2ccccc2)CCN1S(=O)(=O)c1ccc(C(=O)c2ccon2)s1 [Example 248] | < 5.30
CC1CN(C(=O)c2ccccc2)CCN1S(=O)(=O)c1ccc(C(=O)n2ccnc2)cc1 (stereo not shown) [Example 249] | < 5.30
Cc1cc(C)n(-c2ccc(C(=O)C(=O)N3CCN(C(=O)c4ccccc4)C[C@H]3C)cc2)n1 [Example 250] | < 5.30
C[C@@H]1CN(C(=O)c2ccccc2)CCN1C(=O)C(=O)c1cccc(-c2cnco2)c1 [Example 251] | < 5.30
C[C@@H]1CN(C(=O)c2ccccc2)CCN1C(=O)C(=O)c1cccc(-c2ccccn2)c1 [Example 252] | < 5.30
C[C@@H]1CN(C(=O)c2ccccc2)CCN1C(=O)C(=O)c1cccc(-c2ncccn2)c1 [Example 253] | < 5.30
COc1cc(OC)nc(-c2ccc(C(=O)C(=O)N3CCN(C(=O)c4ccccc4)C[C@H]3C)cc2)n1 [Example 254] | < 5.30
